Activity calls are given as the source filed them.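 The calls were made as follows: active = fitted half-maximal concentration for change in GFP expression of 33 µM or less; inactive = the rest.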
Legend:
[1] = system: S. cerevisiae AGP1-GFP strain, flow cytometry GFP, 3 h; assay: potency of AGP1-GFP expression modulators in yeast, dose response, cell-based, flow cytometry, S. cerevisiae, MLPCN hits (AID 2743)
[2] = as above; conditions: S. cerevisiae AGP1-GFP strain, flow cytometry GFP, 3 h; at 33 µM (top of the series)

SMILES | EC50 [1] [nM] | GFP fluorescence (kMESF) [2]
CCCOc1ccc(C(=O)NNC(=S)NC(=O)CC)cc1 | 1940 | 
O=C(OCC(=O)N1CCN(C(=O)c2ccco2)CC1)c1cc(-c2ccccc2)nc2ccccc12 | 2830 | 43.7 kMESF (inactive)
O=C(OCC(=O)N1CCN(C(=O)c2ccco2)CC1)c1cc(-c2cccc(Br)c2)nc2ccccc12 | 2810 | 
CCOC(=O)CS(=O)(=O)c1nc(-c2ccccc2)cc(C(F)(F)F)n1 | 1380 | 
CS(=O)(=O)c1nc(-c2cccs2)cc(C(F)(F)F)n1 | 872 | 
COC(=O)CCS(=O)(=O)c1nc(-c2ccccc2)cc(C(F)(F)F)n1 | 943 | 
O=C(Oc1ccnc2cc(Cl)ccc12)N1CCCCCC1 | 3860 | 
CS(=O)(=O)c1nc(-c2ccccc2)cc(C(F)(F)F)n1 | 653 | 
CC(C)(C)C(=O)C(Cl)C(=O)Nc1ccccc1 (stereo not given) | 570 | 
COc1ccc(N2CCN(C(=O)c3ccc(Br)cc3)CC2)c([N+](=O)[O-])c1 | 3840 | 
O=C(C#Cc1cccc([N+](=O)[O-])c1)c1ccccc1 | 305 | 
CN1CCN(C(=O)c2cc(COc3c(F)cccc3F)on2)CC1c1ccccc1 (stereo not given) | 3890 | 
CNc1nc(N)c([N+](=O)[O-])c(Nc2cccc(F)c2)n1 | 9390 | 
CCOC(=O)CCS(=O)(=O)c1nc(-c2ccccc2)cc(C(F)(F)F)n1 | 941 | 
CCN(CC)C(=O)Oc1ccnc2cc(Cl)ccc12 | 7220 | 
COc1cc(/C=C/[N+](=O)[O-])ccc1O |  | 32.3 kMESF (inactive)
O=C1c2ccccc2C(=O)N1OS(=O)(=O)c1ccc(F)cc1 |  | 27 kMESF (inactive)
COc1ccccc1OCCCc1c(C)n[nH]c1C |  | 31.1 kMESF (inactive)
Cc1cccc(C)c1NC(=O)C(Cl)C(=O)c1ccccc1 (stereo not given) | 781 | 
O=C1Nc2ccc(Br)cc2/C1=C/C(=O)c1ccc2c(c1)OCO2 |  | 46.7 kMESF (inactive)

SMILES | EC50 [1] [nM] | GFP fluorescence (kMESF) [2]
CC[C@@]1(c2ccccc2OC)ON(c2ccccc2C(F)(F)F)C1=O |  | 33.2 kMESF (inactive)
CC(=O)Oc1oc(-c2ccccc2)nc1C=Nc1ccc(N(C)C)cc1 |  | 43.2 kMESF (inactive)
O=C(/C=C/Sc1ncn[nH]1)c1ccc(Cl)cc1 |  | 38 kMESF (inactive)
CCC(C)/C(C)=N/NC(=O)c1ccc(COc2ccc(Cl)c(C)c2)cc1 (stereo not given) |  | 41.2 kMESF (inactive)
CCN(CC)c1ccc2cc(-c3nc(-c4ccc(OC)cc4)cs3)c(=O)oc2c1 |  | 40.6 kMESF (inactive)
N=C1S/C(=C\c2ccco2)C(=O)N1c1nccs1 |  | 40.4 kMESF (inactive)
CCC(=O)Nc1ccc(NC(=O)c2cc3ccccc3o2)cc1 |  | 43.4 kMESF (inactive)
Clc1cnc(N/N=C/c2cccs2)c(Cl)c1 |  | 40.5 kMESF (inactive)
CCOc1cc(C=C2C(=O)c3ccccc3C2=O)ccc1OCC(=O)Nc1ccc(C)cc1 |  | 36.1 kMESF (inactive)
O=C(/C=C/c1ccc(Cl)c([N+](=O)[O-])c1)c1cccnc1 |  | 35.8 kMESF (inactive)
N#Cc1c2ccc([N+](=O)[O-])cc2[n+]([O-])n1-c1ccccc1 |  | 27.6 kMESF (inactive)
Cc1ccc(S(=O)(=O)/N=C(\Sc2ccccc2)c2ccccc2)cc1 | 822 | 
CCc1ccc(OCC(=O)NNC(=S)NC(=O)C2CC2)c(Br)c1 |  | 45.2 kMESF (inactive)
CC(=O)NN1C(=O)/C(=C/c2ccc(Br)o2)SC1=S |  | 40.5 kMESF (inactive)
CCn1c(/C=C/c2ccc([N+](=O)[O-])o2)nc2ccccc2c1=O |  | -51 kMESF (inactive)
COc1ccc(C(=O)NC(=S)NNC(=O)CCc2ccccc2)cc1 |  | 37.5 kMESF (inactive)
CC(=O)c1ccc(N2CCN(C(=O)c3ccc(Br)cc3)CC2)c(F)c1 | 6920 | 
CCn1c(=O)c(C(=O)Nc2nc3ccccc3[nH]2)c(O)c2ccccc21 |  | 12.8 kMESF (inactive)
O=C1ON=C(c2ccccc2)/C1=C\c1ccco1 |  | 42.7 kMESF (inactive)
Cc1cc(O)c(C(=O)/C=C/c2ccc(Cl)cc2)c(=O)o1 |  | 40.1 kMESF (inactive)

SMILES | EC50 [1] [nM] | GFP fluorescence (kMESF) [2]
COc1ccc(C(=O)NC(=S)NNC(=O)c2cnccn2)cc1OC |  | 30.2 kMESF (inactive)
Cc1cc(C)c(OCC(=O)Nc2nc(-c3ccccn3)cs2)c(C)c1 |  | 28.8 kMESF (inactive)
Cc1ccc(/C=N/Nc2ncc(Cl)cc2Cl)s1 |  | 35.6 kMESF (inactive)
O=C(COc1ccccc1)NNC(=S)NC(=O)c1ccc(Cl)cc1Cl |  | 29.9 kMESF (inactive)
COc1ccc(NC(=O)/C(C#N)=C/c2ncc([N+](=O)[O-])n2C)c(OC)c1 |  | 45.2 kMESF (inactive)
O=C(NC(=S)NNC(=O)c1cnccn1)c1ccc(F)cc1 |  | 37.3 kMESF (inactive)
O=S(=O)(CCN(CCS(=O)(=O)C(F)(F)F)CC1CCCO1)C(F)(F)F (stereo not given) |  | 35.8 kMESF (inactive)
Cc1nc2ccc(NC(=O)c3oc4ccc(F)cc4c3C)cc2s1 |  | 35.7 kMESF (inactive)
O=C(C#Cc1ccccc1)c1cccc([N+](=O)[O-])c1 |  | 52 kMESF (inactive)
CN1CCN(C(c2ccc(C(F)(F)F)cc2)c2ccc3cccnc3c2O)CC1 (stereo not given) |  | 34 kMESF (inactive)
O=C(NC(=S)Nc1ccc2oc(=O)ccc2c1)c1cccc(Cl)c1 |  | 29.8 kMESF (inactive)
Cc1c(NC2=C(Cl)C(=O)N(c3ccccc3)C2=O)c(=O)n(-c2ccccc2)n1C |  | 41.3 kMESF (inactive)
N#Cc1ccc(N=c2ssnc2Cl)cc1 |  | 33.2 kMESF (inactive)
CCn1c(=O)c(C(C)=O)c(O)c2ccccc21 |  | 41.4 kMESF (inactive)
O=C(/C=C/c1cccc(Cl)c1)c1nc2ccccc2[nH]1 |  | 29.7 kMESF (inactive)
CCN(CC)c1ccc2cc(-c3nc4ccccc4[nH]3)c(=O)oc2c1 |  | 48.4 kMESF (inactive)
O=C(O)C1Sc2[nH]c(=O)sc2C2c3cc(Br)ccc3OC(=O)C12 (stereo not given) |  | 38.7 kMESF (inactive)
CC1=C(C)/C(=N\OS(=O)(=O)c2ccccc2)C=CC1=O |  | 41.6 kMESF (inactive)
COc1ccccc1C(=O)NNC(=S)NC(=O)c1cccs1 |  | 48 kMESF (inactive)

Source: PubChem BioAssay AID2743 (NMMLSC, 2010)
